We go through two compounds from patent publication EP0998477B1, “Alkyl-4-silylheterocyclic phenols and thiophenols as antioxidant agents” (priority 1997, dated 1998).

Each structure is given as a SMILES string. Like-named read-outs stand apart in the source and are kept apart here.

The test system of data set [1] is serum lipids. Kind of data set: In vivo screening in rats: conjugated diene lag phase of pooled serum. Details: species or system Male Sprague-Dawley rats. The conditions noted are these: mean of 2 determinations of pooled serum (N = 5), not normalized, Control = 61 min., diet 0.3% for 4 days. The source says: (§1) A typical experiment consists of 4-6 groups of rats (N = 5 per group) with 1 group being a control which receives no MDL compound and the other groups being treated with 0.3% MDL compound. Some of the compounds are either repeated at 0.3% or evaluated again at the lower dose of 0.1 %. House Male Sprague-Dawley rats, 50-100 g, (Harlan Laboratories, Indianapolis, IN) in groups of 5, feeding ad libitum water and Purina Rodent chow (#5002) with or without MDL compound as a dietary admixture for 4 days. Make dietary admixtures (0.3%) by mixing 1.2 grams of an MDL compound with 400 grams of Purina rodent chow (#5002). Mix the MDL compound with approximately 50 grams of food using a mortar and pestle. This is added to the remainder of the food and mixed for 3 hours on a rotary mixer. In the morning of day 5, anesthetize non-fasted rats with carbon dioxide, and collect blood by cardiac puncture. Sacrifice rats by cervical dislocation. Record body weights and liver weights in grams. Record food consumption as grams • day^-1 • rat^-1. Deaths are recorded as mortality. […]
Conjugated diene lag phase is another indicator of the oxidation of lipids. […] Measure the absorbances of all cuvettes and set the instrument baseline to zero using the lowest absorbing sample. […] Record the absorbance of each cuvette at 2 min intervals for a period of 840 min. […]

The nature of data set [2]: In vivo screening in rats: animal parameters (food, body weight, liver weight, mortality). Also noted: species or system Male Sprague-Dawley rats. The settings on record: diet 0.3% for 4 days, N = 5 rats; for mortality: deaths per group; for food: grams eaten per day per rat; for food / lw/bw / body wt.: percent of control; for lw/bw: liver weight/body weight; for body wt.: weight in grams. The source says:
(§2) A typical experiment consists of 4-6 groups of rats (N = 5 per group) with 1 group being a control which receives no MDL compound and the other groups being treated with 0.3% MDL compound. Some of the compounds are either repeated at 0.3% or evaluated again at the lower dose of 0.1 %. House Male Sprague-Dawley rats, 50-100 g, (Harlan Laboratories, Indianapolis, IN) in groups of 5, feeding ad libitum water and Purina Rodent chow (#5002) with or without MDL compound as a dietary admixture for 4 days. Make dietary admixtures (0.3%) by mixing 1.2 grams of an MDL compound with 400 grams of Purina rodent chow (#5002). Mix the MDL compound with approximately 50 grams of food using a mortar and pestle. This is added to the remainder of the food and mixed for 3 hours on a rotary mixer. In the morning of day 5, anesthetize non-fasted rats with carbon dioxide, and collect blood by cardiac puncture. Sacrifice rats by cervical dislocation. Record body weights and liver weights in grams. Record food consumption as grams • day^-1 • rat^-1. Deaths are recorded as mortality. Use aliquots of fresh serum for clinical chemistries, thiobarbituric acid reactive substances (TBARS) and conjugated diene measurements. Freeze aliquots of serum (∼ 0.5mL) and whole livers at -20°C for compound and metabolite concentration determination at a later time.

A short description of data set [3]: In vivo screening in rats: serum clinical chemistries. Also noted: species or system Male Sprague-Dawley rats. The settings on record: percent of control, diet 0.3% for 4 days, N = 5 rats; for ALT: alanine aminotransferase in serum; for ALP: alkaline phosphatase in serum; for AST: aspartate aminotransferase in serum; for GLUC: glucose in serum; for CHOL: total cholesterol in serum; for TRIG: triglycerides in serum.
Excerpt: as §2
Allow blood to clot at room temperature for 30 minutes. Obtain serum after centrifugation for 10 min at 4°C at 3000 rpm in a Beckman J-6M/E centrifuge with a JS-4.2 rotor. Analyze fresh serum by a COBAS MIRA S autoanalyzer (Roche Diagnostics) using Roche diagnostic reagents for the following clinical chemistry measurements: alkaline phosphatase (ALP, kit # 44553), alanine transaminase (ALT, kit # 42375), aspartate aminotransferase (AST, kit # 42381), total cholesterol (CHOL, kit # 44334), triglyceride (TG, kit # 44120), and glucose (GLU, kit # 44558). Calculate ALP, ALT, and AST as units/L. Calculate cholesterol, triglycerides, and glucose as mg/dL.

The test system of data set [4] is serum lipids. Put plainly: In vivo screening in rats: TBARS assay on serum (CuSO4-initiated oxidation). Also noted: species or system Male Sprague-Dawley rats. The settings on record: thiobarbituric acid reactive substances (nmoles MDA) in serum, percent of control; diet 0.3% for 4 days, N = 5 rats.
Excerpt: as §1, with “Sacrifice rats by cervical dislocation. Record body weights and liver weights in grams. Record food consumption as grams • day^-1 • rat^-1.” left out
In this assay the oxidation of serum lipids is initiated with CuSO4, resulting in the formation of aldehydes, such as malondialdehyde (MDA). Upon incubation with thiobarbituric acid, the absorbance of the aldehydes can be detected at 530-540 nm. […] Measure absorbances at 540 nm using a Biotek model EL311 microplate reader. The nmoles of MDA produced are calculated from a standard curve of 0 to 10 nmoles of MDA prepared from malonaldehyde bis(dimethylacetal). […]

For data set [5], the system named is VCAM-1. Put plainly: Inhibition of cytokine-induced VCAM-1 expression in proliferating HUVEC (cell-surface ELISA). In kind it is cell-based. The conditions noted are these: Homo sapiens, coincubated with tumor necrosis factor-alpha and compound for 20 hr, average of two runs. On the procedure: Plate proliferating human umbilical vein endothelial cells (HUVEC) or human aortic smooth muscle cells (HASMC) from Clonetics (San Diego, CA) onto 96-well plates in 100 µL medium per well at 20,000 cells per cm^2. Maintain the cultures in growth medium (EGM or SMGM2, Clonetics, San Diego, CA) for two days prior to addition of cytokines or drugs. Add cytokines plus or minus compounds for 20 to 24 hours prior to analysis for adhesion molecule levels. Add tumor necrosis factor (Genzyme, Cambridge, MA) to cultures at 500-1000 units/mL to stimulate adhesion molecule expression. Add interleukin-4 (GIBCO-BRL, Gaithersburg, MD) to cultures at 100-200 pg/mL to stimulate VCAM-1 expression. […] Remove the culture medium, and wash the monolayers twice with Hanks buffered saline solution (HBSS) at room temperature. Add the primary antibody (anti-human VCAM-1 from Upstate Biotechnology, Inc., Lake Placid, NY or anti-human ICAM-1 from Immunotech, Inc., Westbrook, ME) to each well (1 µg/mL in HBSS plus 5% newborn calf serum, GIBCO-BRL, Gaithersburg, MD) and incubate at 37°C for 1 hr. Wash the wells twice with HBSS, then add 100 µL of a 1/1000 dilution of goat anti-mouse IgG conjugated to horse radish peroxidase (BioRad, Hercules, CA) in HBSS plus 5% newborn calf serum to each well and incubated for 1 hr at 37°C. […] Measure absorbance at 450 nm with a plate reader. […]
Background: ELISA stands for enzyme-linked immunosorbent assay.

The test system of data set [6] is ICAM-1. Kind of data set: Inhibition of cytokine-induced ICAM-1 expression in proliferating HUVEC (cell-surface ELISA). In kind it is cell-based, human. On the procedure: Plate proliferating human umbilical vein endothelial cells (HUVEC) or human aortic smooth muscle cells (HASMC) from Clonetics (San Diego, CA) onto 96-well plates in 100 µL medium per well at 20,000 cells per cm^2. Maintain the cultures in growth medium (EGM or SMGM2, Clonetics, San Diego, CA) for two days prior to addition of cytokines or drugs. Add cytokines plus or minus compounds for 20 to 24 hours prior to analysis for adhesion molecule levels. Add tumor necrosis factor (Genzyme, Cambridge, MA) to cultures at 500-1000 units/mL to stimulate adhesion molecule expression. Add interleukin-4 (GIBCO-BRL, Gaithersburg, MD) to cultures at 100-200 pg/mL to stimulate VCAM-1 expression. […] Remove the culture medium, and wash the monolayers twice with Hanks buffered saline solution (HBSS) at room temperature. Add the primary antibody (anti-human VCAM-1 from Upstate Biotechnology, Inc., Lake Placid, NY or anti-human ICAM-1 from Immunotech, Inc., Westbrook, ME) to each well (1 µg/mL in HBSS plus 5% newborn calf serum, GIBCO-BRL, Gaithersburg, MD) and incubate at 37°C for 1 hr. Wash the wells twice with HBSS, then add 100 µL of a 1/1000 dilution of goat anti-mouse IgG conjugated to horse radish peroxidase (BioRad, Hercules, CA) in HBSS plus 5% newborn calf serum to each well and incubated for 1 hr at 37°C. Wash the wells three times with HBSS, then add 100 µL of TMB substrate (BioRad, Hercules, CA) to each well. Stop the reaction after blue color develops by addition of 50 µL of 1 N H2SO4. Measure absorbance at 450 nm with a plate reader.
The IC50 value is defined as the drug concentration that inhibits the cytokine-induced adhesion molecule expression by 50%. Maximal values for adhesion molecule expression in cytokine-induced cultures was subtracted from the basal level of adhesion molecule expression (minus cytokines) in the cultures to detoermine the level of induction. Each drug concentration was tested in quadruplicate wells. […]

For data set [7] the following is noted: male, Sprague-Dawley, rat, in vivo.
Excerpt: as §2
Determine serum and liver concentrations of parent compound and the metabolites, bisphenol and diphenoquinone, by reverse phase HPLC using a Waters 990 Powerline system. Homegenize livers (1 gram samples) with 5.0mL PBS, pH 7.4, using a Polytron tissue homogenizer at setting 5 for 20-30 seconds. Extract serum or liver homogenates as follows: add 100µL of either serum or homogenate to 2.0mL diethyl ether: ethanol (3:1) while vortexing the tube. Cap the sample tubes and centrifuge for 10 min at 5°C at 3500 rpm in a Beckman GPKR centrifuge with a GH 3.7 rotor. Transfer the supematants to clean tubes and dry under N2. Reconstitute samples with 200µL of acetonitrile : hexane: 0.1 M ammonium acetate (90: 6.5 : 3.5, by vol.). Then, inject 100µL onto a Waters Deltapak C18-300 Å column, and elute with an 83% acetonitrile : 17% water mobile phase at a flow rate of 1.5mL/min. Record absorbances at the wavelengths of 240, 254, and 420nm. Calculate compound concentrations from known quantities of authentic parent compounds after correction for recovery. […]. Calculate concentrations as µg/mL of serum and µg/g of liver.

For `CC(C)(C)c1cc(OC[Si](C)(C)c2ccco2)cc(C(C)(C)C)c1O` [MDL 106,939, Phenol, 2,6-bis(1,1-dimethylethyl)-4-[(2-furanyldimethylsilyl)methoxy]-], the “CONJ. DIENE” value in data set [1] came to 391 min. In data set [2], this compound came in with a mortality of 0%, a food of 88%, a lw/bw of 130% and a body wt. of 92%. In data set [3], the ALT was 92%, the ALP is given as 123%, the AST stood at 106% and the GLUC is 83%. In data set [3], this compound came in with a CHOL of 120% and a TRIG of 108%. The same compound returned a TBARS in data set [4] of 64%. Also, the IC50 in data set [5] turned out to be 13 µM. The IC50 in data set [6] (Homo sapiens, coincubated with tumor necrosis factor-alpha and compound for 20 hr, average of two runs, except MDL 107,695 where both values are shown, read-out: ICAM-1 IC50) worked out at 33 µM. In data set [7], the “Liver Parent” value is given as 97.7 µg/g liver and the “Serum Parent” value is given as 3.3 µg/mL of serum.
In the case of `CC(C)(C)c1cc(OC[Si](C)(C)c2cccs2)cc(C(C)(C)C)c1O` [MDL 107,965, Phenol, 2,6-bis(1,1-dimethylethyl)-4-[(dimethyl-2-thienylsilyl)methoxy]-], the “CONJ. DIENE” value in data set [1] was 273 min. Also, in data set [2], the mortality was 0%, the food stood at 84%, the lw/bw was found to be 118% and the body wt. was 84%. Further, in data set [3], the ALT is given as 96%, the ALP amounted to 137%, the AST is 89% and the GLUC is listed as 86%. In data set [3], this compound yielded a CHOL of 121% and a TRIG of 90%. The TBARS in data set [4] was determined as 57%. The IC50 in data set [6] (Homo sapiens, 20 h, read-out: ICAM-1 IC50, HUVEC, coincubated with tumor necrosis factor-alpha and compound for 20 hr, average of two runs, except MDL 107,695 where both values are shown) came to 72 µM. For the same compound, the IC50 in data set [6] (read-out: ICAM-1 IC50, coincubated with tumor necrosis factor-alpha and compound for 20 hr, average of two runs, except MDL 107,695 where both values are shown) was above 100 µM. In addition, in data set [7], the “Liver Parent” value was determined as 82 µg/g liver and the “Serum Parent” value is given as 12.6 µg/mL of serum.

What is called mortality is the percentage killed. Read a high mortality as a strong lethal effect. Usually IC50 stands for the concentration at which inhibition is half-maximal.
